Experimental data as given in PMC5432002, “The active site structure and catalytic mechanism of arsenite oxidase” (Scientific Reports, 2017).

Molecular target: T1, NT-26 arsenite oxidase (NT-26 Aio) (Pseudorhizobium banfieldiae, UniProt Q6VAL8)
T1 construct: gene aroA; A subunit with Mo site and [3Fe-4S], B subunit with Rieske [2Fe-2S]; with Arsenite oxidase subunit AioB
Type: binding

SMILES: O[As](O)O [arsenite]
- Mo....As EXAFS interaction: suggesting the presence of bound substrate or product through a Mo—O—As linkage
